This passage reports logP results from ChEMBL document CHEMBL3046150, “Quantitative Structure-Activity Relationships of Herbicidal N-Alkyl-N-(4-substituted benzyl)-4-chloro-2-pentenamides against Echinochloa oryzicola” (J Pestic Sci, 1999).

The series in a line: Lipophilicity, log P of the compound. It counts as physicochemical. The following applies: octanol/water.

A word on the logP: it is the decadic logarithm of the partition coefficient of the neutral form, usually between octanol and water. As to `CC(Cl)/C=C/C(=O)N(Cc1ccc(Cl)cc1)CC(C)C` (configuration not stated), where the note is “read-out: logP”, the log partition coefficient (logP) amounted to 4.68.
As to `CC(C)Oc1cc(-n2nc(C(C)(C)C)oc2=O)c(Cl)cc1Cl` [OXADIAZON], the logP is given as 4.78.
